According to PMC4837544, “Differential kinetic profiles and metabolism of primaquine enantiomers by human hepatocytes” (Malaria Journal, 2016):
Read-outs that look alike come from different tables or passages of the source.

How the values were obtained:
[1] = parameters: method as in PMID 25645856; settings: mice, therapeutic doses ref 22; cited from earlier work
[2] = parameters: method as in PMID 25637634; settings: cited from earlier work
[3] = system: primary human hepatocytes; assay: Hepatocyte viability time course by cell counts in presence and absence of PQ; assay type: cell-based
Description: Parallel incubation of substrate-free hepatocytes was performed.

[4] = system: primary human hepatocytes; assay: Substrate depletion / intrinsic clearance of PQ and its enantiomers in cryopreserved human hepatocytes; settings: for substrate depleted: by 2 h; for substrate depleted / λ elimination rate constant / t½ (initial half-life): 20 µM; for substrate depleted / λ elimination rate constant: human hepatocytes 1 million cells/mL; for CLh,b (% hepatic blood flow): human Qh 20.7 mL/min/kg; for λ elimination rate constant: log-linear regression 0–60 min
From the text: (§1) Pooled mixed-gender cryopreserved metabolism-qualified (CYP1A2, 2B6, 2C8, 2C9, 2C19, 2D6, 3A4, UGT2B7, UDP-glucuronosyltransferase) primary human hepatocytes (catalog number 454504) sourced from free donors (who were free of HIV, HBV, HCV and other liver-related diseases) were purchased from Corning Life Sciences (Woburn MA, USA) and stored in liquid nitrogen until use.
(§2) The cryopreserved hepatocytes were thawed and the cells were suspended in recovery medium (Corning Life Sciences). According to the supplier’s instructions, the suspended cells were centrifuged (300g, 5 min), the recovery medium discarded and the cells were re-suspended in the plating medium. Viability of the suspended hepatocytes was computationally determined based on cell counts using a Bio-Rad automated cell counter (Hercules, CA, USA). The cell density was adjusted to approximately 1X10^6 viable cells/mL in the plating media.
(§3) PQ, racemic and enantiomers, prepared as a 1:1 mixture of 12-C and 13-C-labelled compounds, were separately incubated at a final concentration of 20 µM in the cell-containing plating media using the 48-well plate at 37 °C under a humidified atmosphere of 95 % air and 5 % CO2 in an Eppendorf incubator (Hauppauge, NY, USA) attached with a shaker set at 75 rpm. A separate control incubation of PQ and the two enantiomers in the cell-free hepatocyte media was performed to detect any non-enzymatically generated product. Metabolic reactions were halted by the addition of two volumes of ice-cold methanol containing 0.5 µg/mL 6-d3-methoxyprimaquine as an internal standard at predetermined time intervals. This mixture was vortexed and kept at −20 °C for at least 4 h before further analysis. Parallel incubation of substrate-free hepatocytes was performed. At each time point, aliquots were taken for cell viability measurement.
(§4) In preparation for HPLC–MS analysis, samples were centrifuged (10,000g, 10 min) and clear supernatants were dried using a Speedvac. The dried samples were re-suspended in 150 µL methanol, centrifuged and clear supernatants were transferred to HPLC sample vials for analysis.
(§5) The analytical method for simultaneous analysis of primaquine and its metabolites using the Ultra-High Performance Liquid Chromatography-Mass Spectrometry (UHPLC-QToF-MS), as earlier developed and reported was employed in this study. […] Details of the chromatography set-up are published.
(§6) Initial half-life (t^1/2) and elimination rate constants (λ = ln2/t^1/2) of PQ in hepatocyte incubates were calculated by log-linear regression of PQ concentrations profiled against time using data from the sampling points of the 20 µM PQ incubates. The intrinsic clearance in vitro (CLint in vitro) was calculated from λ and the cell density in the respective incubation (number of viable hepatocytes per mL at time zero) and scaled up to the intrinsic clearance in vivo (CLint in vivo) using the human liver mass (25.7 g/kg body mass) and the hepatocellularity (number of hepatocytes per gram of liver = 99 millions cells/g liver): CLint in vitro = λ/cell density. CLint in vivo = CLint in vitro × liver mass × heptocellularity. From CLint in vivo and the hepatic blood flow [Q (20.7 mL/min)/kg body mass], the hepatic metabolic blood clearance (CLh,b) was predicted using the well-stirred model: CLh,b = (CLint in vivo × Q)/(CLint in vivo + Q).
(§7) Since this estimation was for comparisons between enantiomers only, no corrections were made for the free fractions in vitro or in vivo—i.e. they were assumed to be identical.

[5] = as above; settings: both, human; for half-life at 20 µM: hepatocytes, t½ (initial half-life), human hepatocytes
From the text: as §1, §2, §3, §4, §5, §6, §7

[6] = system: primary human hepatocytes; assay type: in vitro ADME; settings: for enantiomer from which the metabolite is generated: 20 µM (+)-, (−)- and (±)-PQ; for amount detected: peak areas too minute to profile
Description: A separate control incubation of PQ and the two enantiomers in the cell-free hepatocyte media was performed to detect any non-enzymatically generated product. Metabolic reactions were halted by the addition of two volumes of ice-cold methanol containing 0.5 µg/mL 6-d3-methoxyprimaquine as an internal standard at predetermined time intervals. This mixture was vortexed and kept at −20 °C for at least 4 h before further analysis. Parallel incubation of substrate-free hepatocytes was performed. At each time point, aliquots were taken for cell viability measurement.
as §4, §5
Metabolites in the accurate mass data were found using the Metabolynx® software. The data were searched using predicted metabolite mass, mass defects, isotope, and fragmentation patterns. Each sample was subjected to data acquisition in full scan and data-dependent positive MS/MS, targeted MS/MS (ESI positive ionization mode) and high-resolution MS (HRMS) modes using the Waters ACQUITY™ XEVO QTOF Mass Spectrometer (Waters Corporation, Manchester, UK) connected to the UHPLC system via an electrospray ionization (ESI) interface. Metabolites were distinguished from artifacts and unrelated products by the presence of twin peaks with a mass difference of six, arising from the six labels in the 1:1 mixture of 12-C and 13-C-labelled PQ. The Identification of each metabolite was assisted by its HRMS data, which were used to calculate their elemental compositions. The full scan mass data were screened and filtered using Waters MetaboLynx XS software. The qualitative metabolite identification was performed using this software package.

[7] = parameters: method as in PMID 25267666, PMID 25637634, PMID 23378100; settings: after racemic PQ in mice, monkeys and humans ref 9, 15, 16; cited from earlier work
[8] = parameters: method as in PMID 24913163, PMID 25267666; settings: monkeys, higher than therapeutic doses ref 8, 9; cited from earlier work
recombinant human CYP2D6 = system: recombinant human CYP2D6; parameters: method as in PMID 25518709; settings: cited from earlier work; for depletion of PQ enantiomers: 2 h incubation with recombinant human CYP2D6 ref 12
[9] = Control incubation in cell-free hepatocyte media (non-enzymatic products); assay type: in vitro ADME
Description: as §3

[10] = parameters: method as in PMID 24913163, PMID 25267666; settings: beagle dogs and mouse models ref 8, 9; cited from earlier work
Pneumocystis carinii = system: Pneumocystis carinii; parameters: method as in PMID 24913163; settings: mice ref 8; cited from earlier work
[11] = parameters: method as in PMID 24913163, PMID 25267666; settings: beagle dogs, humanized mouse model and monkeys ref 8, 9; cited from earlier work
malaria = system: malaria; parameters: method as in PMID 24913163; settings: suppressive and prophylactic assays, mice ref 8; cited from earlier work
[12] = human hepatocytes, computed from λ
[13] = human hepatocytes, computed from λ (ln2/λ)

In the case of `COc1cc(NC(C)CCCN)c2ncccc2c1` (racemic) [(±)-PQ, primaquine], the “liver concentration relative to plasma” value [1] is given as “about 20 times”, the “expected peak plasma concentrations” value ([2]; humans ref 15) is given as under 2 µM and the “direct hepatocellular toxicity (viable cell counts vs drug-free incubation)” value ([3]; 20 µM, up to 2 h) is given as “absence of PQ-induced direct hepatocellular toxicity”. For the same molecule, the hepatocyte viability ([3]; at the 2 h termination time, drug-free and PQ-containing incubates similar) was 88 % of the starting value, the substrate depleted [4] was 30% and the “CLh,b (% hepatic blood flow)” value [4] was 36 % hepatic blood flow. For the same molecule, the Km [5] was 37 µM, the k el at 20 µM [5] was 9.44e-05 s⁻¹ and the half-life at 20 µM ([5]; computed from λ) was 2.03 h. It also gave a half-life at 20 µM ([5]; computed from λ (ln2/λ)) of 2.03 h.
With `COc1cc(NC(C)CCCN)c2nc(O)ccc2c1` (stereo not drawn) [2-hydroxyprimaquine] the “enantiomer from which the metabolite is generated” value [6] was “exclusively generated from the (+)-PQ” and the amount detected [6] was “trace amounts”.
In the case of `COc1cc(NC(C)CCC(=O)O)c2ncccc2c1` (stereo not drawn) [CPQ, carboxyprimaquine], the “enantiomer from which the metabolite is generated” value [6] is listed as “preferentially generated from the (−)-PQ”, the “portion of metabolite generated within 30 min” value ([6]; 2 h incubation) is listed as 75% and the “CPQ peak plasma concentration from (−)-PQ relative to from (+)-PQ” value ([2]; human, after racemic primaquine ref 15) is listed as 15 times. For the same molecule, the “enantiomeric form in plasma” value [7] was “predominantly the (−)-form”.
In the case of `COc1cc(NC(C)CCCOC2OC(C(=O)O)C(O)C(O)C2O)c2ncccc2c1` [glucuronide of PQ alcohol, Primaquine alcohol-O-β-D-glucuronide], the “enantiomer from which the metabolite is generated” value [6] is reported as “preferentially generated from the (−)-PQ”.
With `COc1cc(N2C(=O)CCC2C)c2ncccc2c1` (stereo not drawn) the “enantiomer from which the metabolite is generated” value [6] was “preferentially generated from the (−)-PQ”.
For `COc1cc(NC(C)CCCN)c2nccc(O)c2c1` (stereo not drawn) [4-hydroxyprimaquine], the “enantiomer from which the metabolite is generated” value [6] was “exclusively generated from the (+)-PQ” and the amount detected [6] was “trace amounts”.
For `COc1cc(NC(C)CCCN)c2ncccc2c1` (single isomer, unassigned; (-)) [(−)-PQ, (−)-primaquine], the liver damage [8] is listed as “reversible liver damage”, the “depletion of PQ enantiomers” value (recombinant human CYP2D6) is listed as 30% and the “λ elimination rate constant” value [4] is listed as 0.64 h⁻¹. For the same molecule, the “t½ (initial half-life)” value [4, 12] was 1.08 h, the “t½ (initial half-life)” value [4, 13] was 1.09 h and the substrate depleted [4] was 42%. For the same molecule, the “CLh,b (% hepatic blood flow)” value [4] was 51 % hepatic blood flow and the “in vitro clearance compared with (+)-PQ” value ([4]; human hepatocytes) was “three times faster”.
With `COc1cc(NC(C)CCC(=O)OC2OC(C(=O)O)C(O)C(O)C2O)c2ncccc2c1` [CPQ glucuronide, Carboxyprimaquine-β-D-glucuronide] the “enantiomer from which the metabolite is generated” value [6] was “preferentially generated from the (−)-PQ”.
For `COc1cc([N+]2=CCCC2C)c2ncccc2c1` (stereo not drawn), the “enantiomer from which the metabolite is generated” value [6] was “preferentially generated from the (−)-PQ”.
With `COc1cc(NC(C)CCCNC(=O)OC2OC(C(=O)O)C(O)C(O)C2O)c2ncccc2c1` [N-carbamoyl glucuronide of PQ, (S)-primaquine-N-carbamoyl-β-D-glucuronide] the “enantiomer from which the metabolite is generated” value [6] was “exclusively formed from (+)-PQ” and the “enantiomer from which the metabolite is generated” value ([6]; listed as carbamoyl glucuronide of PQ) was “exclusively generated from (+)-PQ”.
In the case of `COc1cc(NC(C)CCCNC2OC(CO)C(O)C(O)C2O)c2ncccc2c1` (stereo not drawn) [glycosylated conjugate of PQ], the “enantiomer from which the metabolite is generated” value [6] is reported as “preferentially generated by (+)-PQ”, the “enantiomer from which the metabolite is generated” value ([6]; listed as PQ conjugate formed by apparent N-glucosylation) is reported as “preferentially formed with (+)-PQ” and the “enantiomer from which the metabolite is generated” value ([6]; listed as glycosylated PQ) is reported as “preferentially generated from (+)-PQ”. For the same molecule, the “time of peak formation” value ([6]; biphasic increase) was at most 30 min and the “formation in cell-free media” value [9] was “formed non-enzymatically”.
For `COc1cc(N[C@@H](C)CCCN)c2ncccc2c1` [(+)-PQ, (+)-(S)-primaquine], the acute toxicity [10] is listed as “higher acute toxicity than (−)-PQ”, the “depletion of PQ enantiomers” value (recombinant human CYP2D6) is listed as 50% and the “rate of metabolism compared to (−)-PQ” value (recombinant human CYP2D6; in vitro with recombinant human CYP2D6 ref 12) is listed as “significantly higher”. The “Pneumocystis carinii pneumonia efficacy compared with (−)-PQ” value (Pneumocystis carinii) was “more active than (−)-PQ”, the methaemoglobinemia [11] was “higher methaemoglobinemia than (−)-PQ” and the “anti-malarial activity compared with (−)-PQ” value (malaria) was “more active than (−)-PQ”. The “λ elimination rate constant” value [4] was 0.19 h⁻¹, the “t½ (initial half-life)” value [4, 12] was 3.62 h and the “t½ (initial half-life)” value [4, 13] was 3.62 h. The substrate depleted [4] was 16%, the “rate of hepatic clearance of (+)-PQ relative to that of (−)-PQ” value ([4]; extrapolated in vivo human hepatic blood clearance, well-stirred liver model) was 45% and the “CLh,b (% hepatic blood flow)” value [4] was 24 % hepatic blood flow. The “initial half-life compared with (−)-PQ” value ([4]; human hepatocytes) was “more than three times longer”.
With `COc1cc(NC(C)CCCO)c2ncccc2c1` (stereo not drawn) [PQ terminal alcohol, primaquine alcohol] the “enantiomer from which the metabolite is generated” value [6] was “preferentially generated from the (−)-PQ”.
